Measurements reported in PubChem BioAssay AID248 (DTP/NCI, 2004).
“And” between values parts separate entries of the source, which are not always exact repeats. Equal entries are not always repeated. Inconclusive results and toxic doses are left out. Cut-off read from the data, not from the text of the source: active = T/C of 150% or more; inactive = T/C below 125%.

Tested on: L1210 leukemia ip in BDF1 mice, survival T/C
Experiment: NCI In Vivo Anticancer Drug Screen. Data for tumor model L1210 Leukemia (intraperitoneal) in B6D2F1 (BDF1) mice
Settings: endpoint: mean survival time, higher = longer survival
Method in brief: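 Tumor cells were implanted, animals were treated, and survival was followed. The result divides the treated measurement by the vehicle-control measurement.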

[1] = dose: 100.0 mg/kg/injection, schedule: Q04DX003 (ip), vehicle: saline with Tween-80
[2] = dose: 200.0 mg/kg/injection, schedule: Q04DX003 (ip), vehicle: saline with Tween-80
[3] = dose: 400.0 mg/kg/injection, schedule: Q04DX003 (ip), vehicle: saline with Tween-80
[4] = dose: 100.0 mg/kg/injection, schedule: Q01DX009 (ip), vehicle: Klucel (hydroxypropylcellulose) (HPC)
[5] = dose: 200.0 mg/kg/injection, schedule: Q01DX009 (ip), vehicle: Klucel (hydroxypropylcellulose) (HPC)
[6] = dose: 400.0 mg/kg/injection, schedule: Q01DX009 (ip), vehicle: Klucel (hydroxypropylcellulose) (HPC)
[7] = dose: 50.0 mg/kg/injection, schedule: Q01DX009 (ip), vehicle: saline with Tween-80
[8] = dose: 100.0 mg/kg/injection, schedule: Q01DX009 (ip), vehicle: saline with Tween-80
[9] = dose: 200.0 mg/kg/injection, schedule: Q01DX009 (ip), vehicle: saline with Tween-80
[10] = dose: 100.0 mg/kg/injection, schedule: Q04DX003 (ip), vehicle: Klucel (hydroxypropylcellulose) (HPC)
[11] = dose: 200.0 mg/kg/injection, schedule: Q04DX003 (ip), vehicle: Klucel (hydroxypropylcellulose) (HPC)
[12] = dose: 400.0 mg/kg/injection, schedule: Q04DX003 (ip), vehicle: Klucel (hydroxypropylcellulose) (HPC)

Measured: T/C

S=C1SCN(C(c2ccccc2)c2ccccc2)CN1C(c1ccccc1)c1ccccc1
inactive: [1] 95 % of control | [2] 94 % of control | [3] 96 % of control

CCc1ccc(NC(=O)Nc2ccc(Cl)c(Cl)c2)cc1
inactive: [4] 90 % of control | [5] 103 % of control | [6] 103 % of control

Cc1csc(=S)n1-c1ccc(Cl)cc1
inactive: dose: 100.0 mg/kg/injection, schedule: Q01DX001 (ip), vehicle: saline with Tween-80 107 % of control | dose: 200.0 mg/kg/injection, schedule: Q01DX001 (ip), vehicle: saline with Tween-80 100 % of control | dose: 400.0 mg/kg/injection, schedule: Q01DX001 (ip), vehicle: saline with Tween-80 98 % of control

Nc1nc(-c2ccccc2)cc(-c2ccccc2)c1-c1ccccc1
inactive: [7] 108 % of control | [8] 112 % of control | [9] 104 % of control

COc1ccc2c(c1C)CCC1(CO)C(C(C)=O)=CCC21 (configuration not stated)
inactive: [4] 105 % of control | [10] 92 % of control | [5] 110 % of control | [11] 97 % of control | [6] 100 % of control | [12] 102 % of control

O=N[O-].O=N[O-].[Co].[NH-]CC[N-]CCO.[NH-]CC[N-]CCO
inactive: dose: 25.0 mg/kg/injection, schedule: Q01DX009 (ip), vehicle: water 109 % of control and 122 % of control | dose: 25.0 mg/kg/injection, schedule: Q04DX003 (ip), vehicle: water 99 % of control | dose: 50.0 mg/kg/injection, schedule: Q01DX009 (ip), vehicle: water 103 % of control and 109 % of control | dose: 50.0 mg/kg/injection, schedule: Q04DX003 (ip), vehicle: water 100 % of control | dose: 100.0 mg/kg/injection, schedule: Q01DX009 (ip), vehicle: water 120 % of control and 89 % of control | dose: 100.0 mg/kg/injection, schedule: Q04DX003 (ip), vehicle: water 97 % of control and 100 % of control

O=C(O)Cn1cnc2cncnc21
inactive: [1] 118 % of control | [2] 104 % of control | [3] 102 % of control

O=C1CCCc2ccc(Cl)cc21
inactive: dose: 100.0 mg/kg/injection, schedule: Q01DX009 (ip), vehicle: saline 96 % of control | dose: 200.0 mg/kg/injection, schedule: Q01DX009 (ip), vehicle: saline 97 % of control | dose: 400.0 mg/kg/injection, schedule: Q01DX009 (ip), vehicle: saline 94 % of control

O=C(O)CCCCCNC(=O)c1ccccc1
inactive: [4] 92 % of control | dose: 100.0 mg/kg/injection, schedule: Q04DX003 (ip), vehicle: saline 114 % of control | [5] 93 % of control | dose: 200.0 mg/kg/injection, schedule: Q04DX003 (ip), vehicle: saline 100 % of control | [6] 102 % of control | dose: 400.0 mg/kg/injection, schedule: Q04DX003 (ip), vehicle: saline 103 % of control

CCOC(=O)C1(C(=O)OCC)C(C)CC(O)N1C(=O)c1cc2c(cc1[N+](=O)[O-])OCO2 (configuration not stated)
inactive: dose: 25.0 mg/kg/injection, schedule: Q04DX003 (ip), vehicle: Klucel (hydroxypropylcellulose) (HPC) 94 % of control | dose: 50.0 mg/kg/injection, schedule: Q04DX003 (ip), vehicle: Klucel (hydroxypropylcellulose) (HPC) 94 % of control | [10] 89 % of control

COc1ccc2oc(C(=O)O)cc2c1
inactive: dose: 100.0 mg/kg/injection, schedule: Q04DX003 (ip), vehicle: acetone 101 % of control | dose: 200.0 mg/kg/injection, schedule: Q04DX003 (ip), vehicle: acetone 101 % of control | dose: 400.0 mg/kg/injection, schedule: Q04DX003 (ip), vehicle: acetone 101 % of control

Cc1ccc(NC(=O)NC(C)C)c(C)c1
inactive: dose: 12.5 mg/kg/injection, schedule: Q04DX003 (ip), vehicle: saline with Tween-80 96 % of control | dose: 25.0 mg/kg/injection, schedule: Q04DX003 (ip), vehicle: saline with Tween-80 98 % of control | dose: 50.0 mg/kg/injection, schedule: Q04DX003 (ip), vehicle: saline with Tween-80 104 % of control | [3] 90 % of control

COc1ccc(CC(=O)Cc2ccc(OC)c(OC)c2)cc1OC
inactive: [8] 93 % of control | [1] 100 % of control | [9] 98 % of control | [2] 108 % of control | dose: 400.0 mg/kg/injection, schedule: Q01DX009 (ip), vehicle: saline with Tween-80 102 % of control | [3] 100 % of control

COC(=O)c1ccc(OC(=O)Nc2cc(Cl)ccc2C)cc1
inactive: [8] 106 % of control | [9] 89 % of control

COC1OC(COC(=O)c2ccccc2)C(OS(=O)(=O)c2ccc(C)cc2)C1OCc1ccccc1 (configuration not stated)
inactive: dose: 50.0 mg/kg/injection, schedule: Q01DX001 (ip), vehicle: carboxymethylcellulose (CMC) 98 % of control | dose: 100.0 mg/kg/injection, schedule: Q01DX001 (ip), vehicle: carboxymethylcellulose (CMC) 93 % of control | dose: 200.0 mg/kg/injection, schedule: Q01DX001 (ip), vehicle: carboxymethylcellulose (CMC) 95 % of control | dose: 400.0 mg/kg/injection, schedule: Q01DX001 (ip), vehicle: carboxymethylcellulose (CMC) 95 % of control

S=c1nc[nH]c2c1ncn2C1OC(COCc2ccccc2)C(OCc2ccccc2)C1OCc1ccccc1 (configuration not stated)
inactive: dose: 50.0 mg/kg/injection, schedule: Q01DX001 (ip), vehicle: saline 93 % of control | dose: 100.0 mg/kg/injection, schedule: Q01DX001 (ip), vehicle: saline 102 % of control | dose: 200.0 mg/kg/injection, schedule: Q01DX001 (ip), vehicle: saline 93 % of control | dose: 400.0 mg/kg/injection, schedule: Q01DX001 (ip), vehicle: saline 96 % of control

Nc1nc(N)c(-c2ccc(Cl)cc2)c(COc2cccc([N+](=O)[O-])c2)n1
inactive: dose: 75.0 mg/kg/injection, schedule: Q01DX001 (ip), vehicle: carboxymethylcellulose (CMC) 89 % of control | dose: 150.0 mg/kg/injection, schedule: Q01DX001 (ip), vehicle: carboxymethylcellulose (CMC) 92 % of control | dose: 300.0 mg/kg/injection, schedule: Q01DX001 (ip), vehicle: carboxymethylcellulose (CMC) 93 % of control

COc1cc(C)c(C2NC(=O)c3ccccc3N2)cc1C (configuration not stated)
inactive: dose: 50.0 mg/kg/injection, schedule: Q01DX009 (ip), vehicle: Klucel (hydroxypropylcellulose) (HPC) 95 % of control | [4] 104 % of control and 109 % of control | [10] 97 % of control | dose: 150.0 mg/kg/injection, schedule: Q01DX009 (ip), vehicle: Klucel (hydroxypropylcellulose) (HPC) 109 % of control | [5] 100 % of control | [11] 97 % of control | [6] 107 % of control | [12] 103 % of control

Cc1ccc(CNc2cc(C)ccn2)cc1
inactive: [7] 96 % of control | [8] 101 % of control | [9] 101 % of control

Cc1ccc(SP(=O)(Sc2ccc(C)cc2)Sc2ccc(C)cc2)cc1
inactive: dose: 100.0 mg/kg/injection, schedule: Q04DX002 (ip), vehicle: saline with Tween-80 97 % of control | dose: 200.0 mg/kg/injection, schedule: Q04DX002 (ip), vehicle: saline with Tween-80 97 % of control | dose: 400.0 mg/kg/injection, schedule: Q04DX002 (ip), vehicle: saline with Tween-80 97 % of control

CCC(=O)Nc1cc(C)c(C)cc1C
inactive: [4] 100 % of control | [5] 105 % of control

O=[N+]([O-])c1cccc(S(=O)(=O)Oc2ccccc2)c1
inactive: [4] 102 % of control | [5] 95 % of control | [6] 101 % of control

CC1CC(C)(C)NCCNC(C)CC(C)(C)NCCN1 (configuration not stated)
inactive: dose: 12.5 mg/kg/injection, schedule: Q04DX002 (ip), vehicle: Klucel (hydroxypropylcellulose) (HPC) 97 % of control | dose: 25.0 mg/kg/injection, schedule: Q04DX002 (ip), vehicle: Klucel (hydroxypropylcellulose) (HPC) 94 % of control | dose: 50.0 mg/kg/injection, schedule: Q04DX002 (ip), vehicle: Klucel (hydroxypropylcellulose) (HPC) 94 % of control
